{"source": "patent US20060281767A1", "about": "“Triazoloypyrimidines” (BAYER CROPSCIENCE AKTIENGESELLSCHAFT, priority 2003, published 2006)"}
{"system": "not listed separately", "test": "LogP determination by HPLC (EEC-Directive 79/831 Annex V. A8)", "type": "physicochemical", "settings": "HPLC with acetonitrile/0.1% aqueous phosphoric acid gradient, gradient method"}
{"smiles": "CC(Oc1c(-c2ncncc2Cl)c(Cl)nc2ncnn12)C(F)(F)F", "note": "(stereo not drawn) [Example 1, 5-chloro-6-(5-chloro-pyrimidin4-yl)-7-(2,2,2-trifluoro-isopropoxy)[1,2,4]triazolo[1,5-a]pyrimidine]", "chromatographic logP": 2.43}
{"smiles": "CC(C)C(C)Sc1c(-c2ncncc2Cl)c(Cl)nc2ncnn12", "note": "(stereo not drawn) [Example 2]", "chromatographic logP": 3.07}
{"smiles": "FC(F)(F)c1cccnc1-c1c(Cl)nc2ncnn2c1Cl", "note": "[Example 5, 5,7-dichloro-6-(3-trifluoromethyl-pyridin-2-yl)-[1,2,4]triazolo[1,5-a]pyrimidine]", "chromatographic logP": 1.97}
{"smiles": "Clc1cncnc1-c1c(Cl)nc2ncnn2c1Cl", "note": "[Example 6, 5,7-dichloro-6-(5-chloro-4-pyrimidinyl)[1,2,4]triazolo[1,5-a]pyrimidine]", "chromatographic logP": 1.43}
{"smiles": "Clc1ncsc1-c1c(Cl)nc2nc(C3CC3)nn2c1Cl", "note": "[Example 9, 5,7-dichloro-2-cyclopropyl-6-(4-chloro-thiazol-5-yl)-[1,2,4]-triazolo[1,5-a]pyrimidine]", "chromatographic logP": 2.46}
{"smiles": "Oc1nc2ncnn2c(O)c1-c1ncccc1C(F)(F)F", "note": "[Example 10, 6-(3-trifluoromethyl-pyridin-2-yl)-[1,2,4]triazolo[1,5-a]pyrimidin-5,7-diole]", "chromatographic logP": -0.23}
{"smiles": "Oc1nc2ncnn2c(O)c1-c1ncncc1Cl", "note": "[Example 11, 6-(5-chloro-4-pyrimidinyl)[1,2,4]triazolo[1,5-a]pyrimidin-5,7-diole]", "chromatographic logP": -0.23}
{"smiles": "Oc1nc2nc(C3CC3)nn2c(O)c1-c1scnc1Cl", "note": "[Example 12, 2-cyclopropyl-6-(4-chloro-thiazol-5-yl)-[1,2,4]triazolo[1,5-a]pyrimidin-5,7-diol]", "chromatographic logP": 0.1}
{"smiles": "COC(=O)C(C(=O)OC)c1ncccc1C(F)(F)F", "note": "[Example 13, 2-[(3-trifluoromethyl)-pyridin-2-yl]-malonic acid dimethylester]", "chromatographic logP": 2.05}
{"smiles": "COC(=O)C(C(=O)OC)c1ncncc1Cl", "note": "[Example 14, 2-(5-chloro-pyrimidin-4-yl)-malonic acid dimethylester]", "chromatographic logP": 1.33}
{"smiles": "Clc1cncnc1Cl", "note": "[Example 15, 4,5-dichloropyrimidine]", "chromatographic logP": 1.35}
{"system": "Venturia inaequalis", "test": "Venturia test (apple)/protective", "type": "in vivo", "settings": "protective spray, assessment 10 days after inoculation, 0% = control, 100% = no attack", "from_the_text": "Venturia Test (apple)/protective • Solvent: 24.5 parts by weight of acetone • 24.5 parts by weight of dimethylacetamide • Emulsifier: 1 part by weight of alkyl-aryl-polyglycolether One part by weight of active substance is mixed with the specified quantities of solvent and emulsifier and the concentrate diluted with water to the desired concentration to prepare a suitable active substance preparation. To test the protective efficiency, young plants are sprayed with the active substance preparation in the specified amount. After drying the spray coating, the plants are inoculated with an aqueous conodia suspension of the apple scab pathogen Venturia inaequalis and are then left for 1 day at about 20° C. and 100% relative humidity in an incubation cabinet. The plants are then placed in a greenhouse at about 21° C. and a relative humidity of about 90%. The assessment is made 10 days after the inoculation. In this situation 0% means an efficiency corresponding to that of the control whereas an efficiency of 100% means that no attack is observed.", "units": {"efficiency": "%"}}
{"smiles": "CC(C)C(C)Sc1c(-c2ncncc2Cl)c(Cl)nc2ncnn12", "note": "(stereo not drawn) [Example 2]", "efficiency": "> 90"}
